Laboratory results from patent US9428771B2, “Method for the oxidation of organic compounds” (STUDIENGE[…] MBH, priority 2010, dated 2016).
Like-named read-outs stand apart in the source and are kept apart here.

How the values were obtained:
P450 BM3 [1] = target: T1, P450 BM3 (Priestia megaterium, UniProt P14779); test: P450 BM3 catalysed oxidation of methane to methanol in the presence of an additive; type: biochemical, Bacillus megaterium; parameters: polyhistidine (His6) tag from vector pETM11 (N); made in house; host or cells: E. coli BL21 (DE3) GOLD; conditions: 1 mM additive, 25° C; for Total product formed (methanol): 7% methane, 8% O2, 85% N2, 10 bar; for TON: methane, 10 bar
T1 sequence (P14779 whole entry): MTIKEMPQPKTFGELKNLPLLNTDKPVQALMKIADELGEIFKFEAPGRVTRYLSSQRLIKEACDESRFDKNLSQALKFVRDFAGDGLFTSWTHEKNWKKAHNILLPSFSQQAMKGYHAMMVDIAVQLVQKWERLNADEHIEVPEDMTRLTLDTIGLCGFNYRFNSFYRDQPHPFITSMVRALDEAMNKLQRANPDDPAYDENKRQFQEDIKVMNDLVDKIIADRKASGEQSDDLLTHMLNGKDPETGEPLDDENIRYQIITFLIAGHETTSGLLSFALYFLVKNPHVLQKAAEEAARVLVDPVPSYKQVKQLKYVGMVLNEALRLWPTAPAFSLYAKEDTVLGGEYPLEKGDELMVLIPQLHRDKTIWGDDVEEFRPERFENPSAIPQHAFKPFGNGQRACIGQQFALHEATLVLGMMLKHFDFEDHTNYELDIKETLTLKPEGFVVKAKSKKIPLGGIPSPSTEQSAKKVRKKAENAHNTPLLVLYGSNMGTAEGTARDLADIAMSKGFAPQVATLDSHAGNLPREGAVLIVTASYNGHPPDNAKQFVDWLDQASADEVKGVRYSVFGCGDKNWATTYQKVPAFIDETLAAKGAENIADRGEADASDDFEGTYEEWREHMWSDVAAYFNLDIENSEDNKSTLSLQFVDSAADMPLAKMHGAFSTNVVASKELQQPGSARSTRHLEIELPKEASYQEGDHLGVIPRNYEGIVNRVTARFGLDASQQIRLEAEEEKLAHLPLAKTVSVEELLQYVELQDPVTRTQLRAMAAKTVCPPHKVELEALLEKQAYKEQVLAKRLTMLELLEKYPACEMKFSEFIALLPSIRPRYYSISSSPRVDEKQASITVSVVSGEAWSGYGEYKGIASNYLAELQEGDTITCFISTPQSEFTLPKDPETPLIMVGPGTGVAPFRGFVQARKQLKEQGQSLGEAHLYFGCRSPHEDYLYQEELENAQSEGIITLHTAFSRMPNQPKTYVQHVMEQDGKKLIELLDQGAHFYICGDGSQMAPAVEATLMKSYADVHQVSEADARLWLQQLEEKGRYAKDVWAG
Protocol: (§1) The hydroxylation of gaseous alkanes was carried out in a self-constructed low-pressure reactor. […] Subsequently the reaction vessels were linked to a gas bottle via a multichannel gas feed. The following gas mixtures were used to flush the apparatus and to apply a pressure of 10 bar to the reaction solution: a) 7% methane, 8% oxygen, 85% nitrogen, b) 7% propane, 8% oxygen, 85% nitrogen or c) 10% butane, 8% oxygen, 82% nitrogen. The reaction mixture was stirred at 100 rpm with a crosshead-shaped magnetic stirrer (VWR). At the end of the reaction the pressure was carefully released from the reaction vessels, a 1 ml aliquot was centrifuged for 10 min at 13 000 rpm and analyzed by HPLC. […] Each experiment comprised at least one positive control for the enzyme activity, in which dodecanoic acid was added as additive (1 mM final concentration, from a 100 mM stock in DMSO), while the enzyme was exposed to 10 bar of the gaseous alkane mixture. The reaction of dodecanoic acid was analyzed using decanoic acid (1 mM final concentration, from a 100 mM stock in DMSO) as standard. The samples were extracted for the GC analysis with 0.5 volume of MTBE and were analyzed by GC.
30 min isotherm, 60-240° C. at 16° C./min, 240° C. for 5 min isotherm.
The quantification of propanol and butanol was carried out using the RID-10A detector, while the quantification of methanol was carried out using the RID-10A or, preferably, the ED 50 detector. The ED 50 detector was operated in integrated, amperometric detection mode with an Ag reference electrode in the range of 300 nC. The detection was carried out in waveform as follows: […]

P450 BM3 [2] = target: T1, P450 BM3; test: P450 BM3 catalysed oxidation of butane and propane in the presence of additives; type: biochemical, Bacillus megaterium; parameters: polyhistidine (His6) tag from vector pETM11 (N); made in house; host or cells: E. coli BL21 (DE3) GOLD; conditions: 1 mM additive, 25° C; for % ee: Butane oxidation product; for TON: 10 bar
Protocol: as §1
The quantification of propanol and butanol was carried out using the RID-10A detector, while the quantification of methanol was carried out using the RID-10A or, preferably, the ED 50 detector. The ED 50 detector was operated in integrated, amperometric detection mode with an Ag reference electrode in the range of 300 nC. The detection was carried out in waveform as follows:
The P450 BM3 catalysed oxidation of butane and propane was carried out in the presence or absence of additives 1 under standard conditions as follows: 2.5 ml reaction volume, 5 ml gas volume, 1% DMF, 100 mM KPi, pH 8.0, 10 bar pressure (10% n-butane, 8% O2, 82% N2; 7% propane, 8% O2, 85% N2), propane oxidation: 14.5 h, butane oxidation: 17.5 h., 25° C.

P450 BM3 [3] = target: T1, P450 BM3; conditions: 1 mM additive, 20° C; for TON: mol of product/mol of enzyme; for Regioselectivity: 1 hour
Protocol: For hydroxylating alkanes, for example C6 and C8 alkanes, the substrate was added to the reaction solution from a 160 mM stock in EtOH and was adjusted to a final concentration of 3.2 mM. The solution further comprised 0.1 M glucose (Riedel de Haen), 1 mM NADP^+ (Codexis, Jülich, Germany), 1 U/ml GDH (#001, Codexis, Jülich, Germany), 1 mM additive (unless otherwise stated), BM3-WT enzyme and 100 mM KPi, pH 8.0 with a total volume of 20 ml. The reactions were shaken for 1 hour at 20° C. in a 50 ml Falcon reaction tube in a bacterial incubator at 130 rpm. After one hour, three aliquots were removed, each of 1 ml volume, and acidified with 0.1 ml of 10% HCl. Subsequently 1 mM 1-pentanol was added as internal standard. The mixture was extracted with half a volume of MTBE and analyzed by gas chromatography.
Hydroxylation products were analyzed by GC using the following instruments and under the following conditions: HP6890+7683HP (Hewlett Packard, USA); column: 15 m Stabilwax phase, internal diameter 0.25 mm, film thickness 0.5 μm, (J&W, Germany); pressure: 0.8 bar H2; split rate 60; injector: 220° C.; temperature gradient: 40° C. 4 min isotherm, 40-60° C. at 4° C./min, 60° C.-250° C. at 15° C./min. FID detector. The product peaks were quantified as a ratio to the 1 mM 1-pentanol peak using the following, previously determined, correction factors: 2-octanol: 2.36; 3-,4-octanol: 2.23; 2-,3-hexanol:1.218; 3-Me-3-PeOH,3-Me-2-PeOH: 1.49; 3,3-Di-Me-2-BuOH: 1.43; 2,3-Di-Me-BuOH: 1.317.
Reaction conditions: 3.2 mM alkane; 1% v/v DMF; 2% v/v ethanol; 100 mM glucose, 1 mM NADP^+, 1 U/ml GDH, 1 mM additive, 100 mM KPi, pH 8.0, total volume 20 ml; 1 hour; 20° C. The P450-BM3 concentration depended on the compound used 2: 1 μM, 3: 2.9 μM, 4: 2.9 μM, 5: 1.1 μM, 6: 2.7 μM)
The turnover numbers (TON) were calculated (mol of product/mol of enzyme) for the enzyme at the end of the reaction.

[4] = Butane (10% n-butane, 8% O2, 82% N2, 10 bar), 2.3 μM enzyme, 17.5 h
[5] = alkane 2 (3.2 mM), 1 μM P450-BM3, 1 hour
[6] = alkane 4 (3.2 mM), 2.9 μM P450-BM3, 1 hour
[7] = alkane 5 (3.2 mM), 1.1 μM P450-BM3, 1 hour
[8] = alkane 3 (3.2 mM), 2.9 μM P450-BM3, 1 hour
[9] = alkane 6 (3.2 mM), 2.7 μM P450-BM3, 1 hour
[10] = Propane (7% propane, 8% O2, 85% N2, 10 bar), 2.9 μM enzyme, 14.5 h

Compound	Total product formed (P450 BM3 [2]; [4]) [mM]	% ee (P450 BM3 [2]; 17.5 h) [%]	TON (P450 BM3 [2]; Butane, 2.3 μM enzyme, 17.5 h)	Total product formed (methanol) (P450 BM3 [1]; 1.3 μM enzyme, 21 h) [mM]	TON (P450 BM3 [1]; 1.3 μM enzyme, 21 h)	further results
OCCCC(F)(F)C(F)(F)C(F)(F)C(F)(F)C(F)(F)C(F)(F)C(F)(F)C(F)(F)F [1H, 1H, 2H, 2H, 3H, 3H-Perfluoroundecano, 1H, 1H, 1H, 2H, 2H, 3H, 3H-perfluoroundecanol]	–	–	–	–	–	Total product formed (methanol) (P450 BM3 [1]; 19 h): 0.84 mM; TON (P450 BM3 [1]; 19 h): 630
OCCC(F)(F)C(F)(F)C(F)(F)C(F)(F)C(F)(F)C(F)(F)F [1H, 1H, 2H, 2H-perfluorooctan-1-ol]	–	–	–	–	–	Total product formed (methanol) (P450 BM3 [1]; 19 h): 2.53 mM; TON (P450 BM3 [1]; 19 h): 1889
OCCCCCCC(F)(F)C(F)(F)F [6(perfluoroethyl)hexanol, 6-(perfluoroethyl)hexanol]	–	–	–	–	–	Total product formed (methanol) (P450 BM3 [1]; 19 h): 2.69 mM; TON (P450 BM3 [1]; 19 h): 2006
O=C(O)C(F)(F)F [Additive 1a]	1.1	32	469	–	–	–
O=C(O)C(F)(F)C(F)(F)C(F)(F)C(F)(F)C(F)(F)C(F)(F)F [Additive 1b, perfluoroheptanoic acid]	8.4	22	3632	–	–	–
O=C(O)C(F)(F)C(F)(F)C(F)(F)C(F)(F)C(F)(F)C(F)(F)C(F)(F)C(F)(F)F [Additive 1c, perfluorononanoic acid]	2.0	23	879	2.75	2053	Total product formed (P450 BM3 [3]; [5]): 1.16 mM; TON (P450 BM3 [3]; [5]): 1184; Total product formed (P450 BM3 [3]; [6]): 1.36 mM; TON (P450 BM3 [3]; [6]): 476; Total product formed (P450 BM3 [3]; [7]): 0.96 mM; TON (P450 BM3 [3]; [7]): 892; Regioselectivity (P450 BM3 [3]; alkane 5 (3.2 mM), cell reads: only 2-Hydroxy-3,3-dimethylbutane): only 2-Hydroxy-3,3-
O=C(O)C(F)(F)C(F)(F)C(F)(F)C(F)(F)C(F)(F)C(F)(F)C(F)(F)C(F)(F)C(F)(F)F [Additive 1d, perfluorodecanoic acid]	3.9	20	1699	3.31	2472	–
O=C(O)C(F)(F)C(F)(F)C(F)(F)C(F)(F)C(F)(F)C(F)(F)C(F)(F)C(F)(F)C(F)(F)C(F)(F)F [Additive 1e, perfluoroundecanoic acid]	5.8	19	2519	1.81	1353	Total product formed (P450 BM3 [3]; [8]): 1.50 mM; TON (P450 BM3 [3]; [8]): 525; Total product formed (P450 BM3 [3]; [9]): 0.19 mM; TON (P450 BM3 [3]; [9]): 3241; Regioselectivity (P450 BM3 [3]; alkane 6 (3.2 mM), cell reads: only 2-Hydroxy-2,3-dimethylbutane): only 2-Hydroxy-2,3-; Total product formed (P450 BM3 [2]; [10]): 3.0 mM; TON (P450 BM3 [2]; Propane, 2.9 μM enzyme, 14.5 h): 1021
O=C(O)C(F)(F)C(F)(F)C(F)(F)C(F)(F)C(F)(F)C(F)(F)C(F)(F)C(F)(F)C(F)(F)C(F)(F)C(F)(F)F [Additive 1f, perfluorododecanoic acid]	–	–	–	1.25	933	Total product formed (P450 BM3 [2]; [10]): 0.67 mM; TON (P450 BM3 [2]; Propane, 2.9 μM enzyme, 14.5 h): 227
O=C(O)C(F)(F)C(F)(F)C(F)(F)C(F)(F)C(F)(F)C(F)(F)C(F)(F)C(F)(F)C(F)(F)C(F)(F)C(F)(F)C(F)(F)F [Additive 1g, perfluorotridecanoic acid]	–	–	–	0.75	560	–
O=C(O)C(F)(F)C(F)(F)C(F)(F)C(F)(F)C(F)(F)C(F)(F)C(F)(F)C(F)(F)C(F)(F)C(F)(F)C(F)(F)C(F)(F)C(F)(F)F [Additive 1h, perfluorotetradecanoic acid]	–	–	–	0.28	210	Total product formed (P450 BM3 [2]; [10]): 0.50 mM; TON (P450 BM3 [2]; Propane, 2.9 μM enzyme, 14.5 h): 170
